Earlier results, collected in patent US20190343121A1, “Cinmethylin Microcapsules with a Shell Made of Tetramethylxylylene Diisocyanate and a Polyamine with at Least Three Amine Groups” (BASF Agro B.V., priority 2016, published 2019).

Conditions: at 20° C.

(±)-2-exo-(2-methylbenzyloxy)-1-methyl-4-isopropyl-7-oxabicyclo[2.2.1]heptane [Cinmethylin]
solubility in water: 63 µg/mL
